# From US20250064789A1, “KETOAMIDE DERIVATIVES AND PHARMACEUTICAL USES THEREOF” (priority 2022, published 2025)
# Read-outs that look alike come from different tables or passages of the source.
# Target: recombinant SARS-CoV-2 M^pro (Severe acute respiratory syndrome coronavirus 2 (2019-nCoV) (SARS-CoV-2), UniProt P0DTD1)
# Test: Inhibition of SARS-CoV-2 M^pro enzyme activity (fluorescent substrate assay)
# Format: biochemical
# Conditions: inhibition of SARS-CoV-2 M^pro enzyme activity, read-out: IC50
Compound,IC50 (values in nM) [nM],IC50 (values given in μM) [nM]
C[C@H](NC(=O)C1CCC(F)(F)CC1)C(=O)N[C@H](Cc1ccccc1)C(=O)C(=O)NCc1ccccn1 [Compound 452],66.2 ± 0.9,–
O=C(NCc1ccccn1)C(=O)[C@@H](Cc1ccccc1)NC(=O)[C@@H]1CC(F)(F)CN1C(=O)[C@@H]1C[C@@H]2[C@H](C1)C2(F)F [Compound 453],37.2 ± 0.2,–
O=C(NCc1nccs1)C(=O)[C@@H](Cc1ccccc1)NC(=O)c1ccccc1 [Compound 454],–,1300 ± 70
O=C(NCc1cccs1)C(=O)[C@@H](Cc1ccccc1)NC(=O)c1ccccc1 [Compound 455],–,77300 ± 2310
O=C(NCc1ccco1)C(=O)[C@@H](Cc1ccccc1)NC(=O)c1ccccc1 [Compound 456],–,37200 ± 510
O=C(NCc1ncco1)C(=O)[C@@H](Cc1ccccc1)NC(=O)c1ccccc1 [Compound 457],–,51500 ± 940
O=C(NCc1cocn1)C(=O)[C@@H](Cc1ccccc1)NC(=O)c1ccccc1 [Compound 458],–,11400 ± 80
O=C(NCc1ccon1)C(=O)[C@@H](Cc1ccccc1)NC(=O)c1ccccc1 [Compound 459],–,54740 ± 350
O=C(NCc1ncon1)C(=O)[C@@H](Cc1ccccc1)NC(=O)c1ccccc1 [Compound 460],–,53000 ± 3340
O=C(NCc1ncno1)C(=O)[C@@H](Cc1ccccc1)NC(=O)c1ccccc1 [Compound 461],–,62300 ± 2070
Cc1csc(CNC(=O)C(=O)[C@@H](Cc2ccccc2)NC(=O)c2ccccc2)n1 [Compound 462],–,40700 ± 1500
O=C(NCc1cnc(Cl)s1)C(=O)[C@@H](Cc1ccccc1)NC(=O)c1ccccc1 [Compound 463],–,95200 ± 5990
O=C(NCc1nccs1)C(=O)[C@@H](Cc1ccccc1F)NC(=O)c1ccccc1 [Compound 464],–,3500 ± 230
O=C(NCc1nccs1)C(=O)[C@@H](Cc1cccc(F)c1)NC(=O)c1ccccc1 [Compound 465],–,2550 ± 20
O=C(NCc1nccs1)C(=O)[C@@H](Cc1ccc(F)cc1)NC(=O)c1ccccc1 [Compound 466],–,1950 ± 290
O=C(NCc1nccs1)C(=O)[C@@H](Cc1cc(F)c(F)cc1F)NC(=O)c1ccccc1 [Compound 467],–,3370 ± 180
O=C(NCc1nccs1)C(=O)[C@@H](CC1CCCCC1)NC(=O)c1ccccc1 [Compound 468],–,10500 ± 630
O=C(NCc1nccs1)C(=O)[C@@H](Cc1cccc(Cl)c1)NC(=O)c1ccccc1 [Compound 469],–,1430 ± 150
O=C(NCc1nccs1)C(=O)[C@@H](Cc1ccc(Cl)c(Cl)c1)NC(=O)c1ccccc1 [Compound 470],–,2030 ± 70
O=C(NCc1nccs1)C(=O)[C@@H](Cc1ccccc1)NC(=O)c1ccccc1F [Compound 471],264 ± 4,–
O=C(NCc1nccs1)C(=O)[C@@H](Cc1ccccc1)NC(=O)c1cccc(F)c1 [Compound 472],478 ± 4.8,–
O=C(NCc1nccs1)C(=O)[C@@H](Cc1ccccc1)NC(=O)c1ccc(F)cc1 [Compound 473],–,1310 ± 100
O=C(Cc1ccccc1)N[C@H](Cc1ccccc1)C(=O)C(=O)NCc1nccs1 [Compound 474],949 ± 39.9,–

Compound,IC50 (values in nM) [nM],IC50 (values given in μM) [nM]
O=C(CCc1ccccc1)N[C@H](Cc1ccccc1)C(=O)C(=O)NCc1nccs1 [Compound 475],–,1220 ± 100
O=C(COc1ccccc1)N[C@H](Cc1ccccc1)C(=O)C(=O)NCc1nccs1 [Compound 476],880.8 ± 1.2,–
O=C(CNC(=O)c1ccccc1)N[C@H](Cc1ccccc1)C(=O)C(=O)NCc1nccs1 [Compound 477],–,1860 ± 40
O=C(CNC(=O)c1cnccn1)N[C@H](Cc1ccccc1)C(=O)C(=O)NCc1nccs1 [Compound 478],–,3620 ± 270
O=C(CNC(=O)c1ccccn1)N[C@H](Cc1ccccc1)C(=O)C(=O)NCc1nccs1 [Compound 479],–,2240 ± 100
O=C(CNC(=O)c1cccnc1)N[C@H](Cc1ccccc1)C(=O)C(=O)NCc1nccs1 [Compound 480],–,2230 ± 370
O=C(CNC(=O)c1ccccc1F)N[C@H](Cc1ccccc1)C(=O)C(=O)NCc1nccs1 [Compound 481],998.3 ± 0.2,–
O=C(CNC(=O)c1cccc(F)c1)N[C@H](Cc1ccccc1)C(=O)C(=O)NCc1nccs1 [Compound 482],538.2 ± 4.3,–
O=C(CNC(=O)c1ccc(F)cc1)N[C@H](Cc1ccccc1)C(=O)C(=O)NCc1nccs1 [Compound 483],338.4 ± 3,–
CC(C)(OCc1ccc(F)cc1)C(=O)N[C@H](Cc1ccccc1)C(=O)C(=O)NCc1nccs1 [Compound 484],95.7 ± 1.5,–
CC(C)(OCc1ccc(Cl)cc1)C(=O)N[C@H](Cc1ccccc1)C(=O)C(=O)NCc1nccs1 [Compound 485],33.3 ± 1.7,–
O=C(NCc1nccs1)C(=O)[C@@H](Cc1ccccc1)NC(=O)c1cnn(Cc2cc(F)c(F)cc2F)c1 [Compound 490],–,5210 ± 720
O=C(Cn1cc(-c2ccccc2)cn1)N[C@H](Cc1ccccc1)C(=O)C(=O)NCc1nccs1 [Compound 491],216 ± 7.3,–
O=C(Cn1cc(-c2cccc(F)c2)cn1)N[C@H](Cc1ccccc1)C(=O)C(=O)NCc1nccs1 [Compound 492],66.3 ± 6.1,–
O=C(Cn1cc(-c2ccc(F)nc2)cn1)N[C@H](Cc1ccccc1)C(=O)C(=O)NCc1nccs1 [Compound 493],451.5 ± 2.3,–
O=C(Cn1cc(-c2cccc(OC(F)(F)F)c2)cn1)N[C@H](Cc1ccccc1)C(=O)C(=O)NCc1nccs1 [Compound 494],82.5 ± 3.7,–
O=C(Cn1cc(-c2ccc(OC(F)(F)F)cc2)cn1)N[C@H](Cc1ccccc1)C(=O)C(=O)NCc1nccs1 [Compound 495],–,2270 ± 90
N#Cc1cccc(-c2cnn(CC(=O)N[C@H](Cc3ccccc3)C(=O)C(=O)NCc3nccs3)c2)c1 [Compound 496],77 ± 4.1,–
O=C(Cn1cc(-c2ccc(F)c(Cl)c2)cn1)N[C@H](Cc1ccccc1)C(=O)C(=O)NCc1nccs1 [Compound 497],36 ± 2.4,–
O=C(Cn1cc(-c2ccc(F)c(C(F)(F)F)c2)cn1)N[C@H](Cc1ccccc1)C(=O)C(=O)NCc1nccs1 [Compound 498],103 ± 5.3,–
Cc1nn(CC(=O)N[C@H](Cc2ccccc2)C(=O)C(=O)NCc2nccs2)c(C)c1-c1ccc(F)c(Cl)c1 [Compound 499],32.9 ± 1.5,–
O=C(Cn1cc(-c2ccc(F)c(Cl)c2)c(C(F)(F)F)n1)N[C@H](Cc1ccccc1)C(=O)C(=O)NCc1nccs1 [Compound 500],38.9 ± 0.5,–
O=C(Cn1cc(-c2cc(F)cc(F)c2)cn1)N[C@H](Cc1ccccc1)C(=O)C(=O)NCc1nccs1 [Compound 502],47 ± 0.5,–

Compound,IC50 (values in nM) [nM],IC50 (values given in μM) [nM]
O=C(Cn1cc(-c2cc(F)c(F)c(F)c2)cn1)N[C@H](Cc1ccccc1)C(=O)C(=O)NCc1nccs1 [Compound 504],47.7 ± 0.9,–
O=C(Cn1cc(-c2c(F)ccc(F)c2F)cn1)N[C@H](Cc1ccccc1)C(=O)C(=O)NCc1nccs1 [Compound 505],239 ± 4,–
O=C(Cn1cc(-c2cc(F)c(F)cc2F)cn1)N[C@H](Cc1ccccc1)C(=O)C(=O)NCc1nccs1 [Compound 506],105 ± 2.9,–
O=C(Cn1cc(-c2cc(F)ccc2F)cn1)N[C@H](Cc1ccccc1)C(=O)C(=O)NCc1nccs1 [Compound 507],12.6 ± 0.4,–
Cc1nn(CC(=O)N[C@H](Cc2ccccc2)C(=O)C(=O)NCc2nccs2)c(C)c1C1CCC(F)(F)CC1 [Compound 509],151 ± 6.6,–
O=C(Cn1cc(C2CCC(F)(F)CC2)c(C(F)(F)F)n1)N[C@H](Cc1ccccc1)C(=O)C(=O)NCc1nccs1 [Compound 510],137 ± 1.6,–
"O=C(Cc1csc(C2CCC(F)(F)CC2)n1)N[C@H](Cc1ccccc1)C(=O)C(=O)NCc1nccs1 [Compound 511, (R)-3-(2-(2-(4,4-difluorocyclohexyl)thiazole-4-yl)acetamido)-2-oxo-4-phenyl-N-(thiazole-2-ylmethyl)butyramide]",30.4 ± 2.1,–
O=C(NCc1nccs1)C(=O)[C@@H](Cc1ccccc1)NC(=O)C1(n2ccc(C3CCC(F)(F)CC3)n2)CC1 [Compound 512],22.1 ± 0.5,–
O=C(Cn1cc(C2CCC(F)(F)CC2)cn1)N[C@H](Cc1ccccc1)C(=O)C(=O)NCc1nccs1 [Compound 513],30.4 ± 0.8,–
N#Cc1cc(F)cc(-c2nc(CC(=O)N[C@H](Cc3ccccc3)C(=O)C(=O)NCc3nccs3)cs2)c1 [Compound 514],56.8 ± 0.4,–
Cc1cc(-c2cc(Cl)cc(C#N)c2)nn1CC(=O)N[C@H](Cc1ccccc1)C(=O)C(=O)NCc1nccs1 [Compound 515],26.2 ± 0.3,–
"O=C(Cc1noc(-c2ccc(F)c(F)c2)n1)N[C@H](Cc1ccccc1)C(=O)C(=O)NCc1nccs1 [Compound 516, (R)-3-(2-(5-(3,4-difluorophenyl)-1,2,4-oxadiazol-3-yl)acetylamino)-2-oxo-4-phenyl-N-(thiazole-2-ylmethyl)butyramide]",33 ± 1.9,–
Cc1cc(-c2cc(Cl)cc(C#N)c2)nn1C1(C(=O)N[C@H](Cc2ccccc2)C(=O)C(=O)NCc2nccs2)CC1 [Compound 517],56.2 ± 3.2,–
"N#Cc1cc(F)cc(N2CC(=O)N(CC(=O)N[C@H](Cc3ccccc3)C(=O)C(=O)NCc3nccs3)C2=O)c1 [Compound 518, (R)-3-(2-(3-(3-cyano-5-fluorophenyl)-2,5-dioxoimidazolidin-1-yl)acetylamino)-2-oxo-4-phenyl-N-(thiazole-2-ylmethyl) butyramide]",248.5 ± 1.4,–
O=C(CN1C(=O)CN(c2ccc(F)c(Cl)c2)C1=O)N[C@H](Cc1ccccc1)C(=O)C(=O)NCc1nccs1 [Compound 519],32.7 ± 3.1,–
O=C(Cc1noc(-c2cc(F)ccc2F)n1)N[C@H](Cc1ccccc1)C(=O)C(=O)NCc1nccs1 [Compound 520],161.3 ± 1.2,–
O=C(Cc1noc(-c2ccc(Cl)cc2F)n1)N[C@H](Cc1ccccc1)C(=O)C(=O)NCc1nccs1 [Compound 521],441 ± 4.5,–
O=C(CN1C(=O)CN(c2cc(F)c(F)c(F)c2)C1=O)N[C@H](Cc1ccccc1)C(=O)C(=O)NCc1nccs1 [Compound 522],74.7 ± 4.2,–
O=C(CN1C(=O)CN(c2cc(F)cc(F)c2)C1=O)N[C@H](Cc1ccccc1)C(=O)C(=O)NCc1nccs1 [Compound 523],123 ± 5.1,–
O=C(Cc1noc(-c2ccc(F)c(C(F)(F)F)c2)n1)N[C@H](Cc1ccccc1)C(=O)C(=O)NCc1nccs1 [Compound 524],32.8 ± 3.2,–
O=C(CN1C(=O)CN(c2ccc(F)cc2)C1=O)N[C@H](Cc1ccccc1)C(=O)C(=O)NCc1nccs1 [Compound 525],84.5 ± 1.8,–
O=C(Cc1noc(-c2ccc(F)c(Cl)c2)n1)N[C@H](Cc1ccccc1)C(=O)C(=O)NCc1nccs1 [Compound 526],28.4 ± 1.5,–
